Results reported in patent US20230091225A1, “Bifunctional chimeric heterocyclic compounds for targeted degradation of androgen receptors and use thereof” (HINOVA PHARMACEUTICALS INC., priority 2019, published 2023).

Target: T1, androgen receptor (AR) (Homo sapiens, UniProt P10275)
T1 sequence (P10275 1-920): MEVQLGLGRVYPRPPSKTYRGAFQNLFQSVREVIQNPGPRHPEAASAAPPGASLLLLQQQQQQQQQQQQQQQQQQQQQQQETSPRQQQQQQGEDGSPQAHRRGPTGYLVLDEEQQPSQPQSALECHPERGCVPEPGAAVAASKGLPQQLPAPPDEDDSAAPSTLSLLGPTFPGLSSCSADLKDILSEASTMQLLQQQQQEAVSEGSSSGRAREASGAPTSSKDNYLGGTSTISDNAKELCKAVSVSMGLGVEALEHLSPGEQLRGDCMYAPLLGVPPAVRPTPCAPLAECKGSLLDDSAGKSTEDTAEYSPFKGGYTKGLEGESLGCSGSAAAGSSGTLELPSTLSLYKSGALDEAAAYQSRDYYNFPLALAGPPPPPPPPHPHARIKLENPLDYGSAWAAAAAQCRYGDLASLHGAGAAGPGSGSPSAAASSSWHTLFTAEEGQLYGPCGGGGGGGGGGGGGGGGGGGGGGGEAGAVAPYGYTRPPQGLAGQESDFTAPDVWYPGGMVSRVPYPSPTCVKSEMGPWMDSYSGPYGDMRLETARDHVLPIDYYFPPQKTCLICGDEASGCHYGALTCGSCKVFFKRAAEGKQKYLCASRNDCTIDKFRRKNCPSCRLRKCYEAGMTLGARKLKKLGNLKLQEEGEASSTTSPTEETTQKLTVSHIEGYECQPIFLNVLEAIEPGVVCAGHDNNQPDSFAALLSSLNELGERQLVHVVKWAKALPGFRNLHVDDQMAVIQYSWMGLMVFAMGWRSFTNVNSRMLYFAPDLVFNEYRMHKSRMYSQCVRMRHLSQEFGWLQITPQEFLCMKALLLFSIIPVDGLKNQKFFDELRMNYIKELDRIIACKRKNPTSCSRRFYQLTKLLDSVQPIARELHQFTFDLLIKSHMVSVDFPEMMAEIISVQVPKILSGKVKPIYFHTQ
Test: Degradation of androgen receptor (AR) protein in VCaP cells by Western blot
Assay type: cell-based
Conditions: percentage of degraded AR at 100 nM, VCaP cells, 16 h
Outline: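 VCaP cells (5×10^5/well) were seeded overnight, then treated in duplicate for 16 h with compound in 0.1% DMSO final. Lysates (30 μg protein) were immunoblotted for AR (D6F11) with β-actin as loading control, detected by ECL chemiluminescence.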

`N#Cc1ccc(O[C@H]2CC[C@H](NC(=O)c3cnc(N4CCC(CN5CC6CN(c7ccc8c(c7)C(=O)N(C7CCC(=O)NC7=O)C8=O)CC6C5)CC4)nc3)CC2)cc1Cl` (some centres unmarked) [Compound 256, N-((1r,4r)-4-(3-chloro-4-cyanophenoxy)cyclohexyl)-2-(4-((5-(2-(2,6-dioxopiperidin-3-yl)-1,3-dioxoisoindolin-5-yl)Hexahydropyrrolo[3,4-c]pyrrol-2(11H)-yl)methyl)piperidin-1-yl)pyrimidine-5-carboxamide] and `N#Cc1ccc(O[C@H]2CC[C@H](NC(=O)c3cnc(N4CCC(CN5CC6CN(c7cc8c(cc7F)C(=O)N(C7CCC(=O)NC7=O)C8=O)CC6C5)CC4)nc3)CC2)cc1Cl` (some centres unmarked) [Compound 257, N-((1r,4r)-4-(3-chloro-4-cyanophenoxy)cyclohexyl)-2-(4-((5-(2-(2,6-dioxopiperidin-3-yl)-6-fluoro-1,3-dioxoisoindolin-5-yl)Hexahydropyrrolo[3,4-c]pyrrol-2(1H)-yl)methyl)piperidin-1-yl)pyrimidine-5-carboxamide] fall in the same range of inhibition at 0.1 µM: 25 to 49% for the first, 25 to 49% for the second.

`N#Cc1ccc(O[C@H]2CC[C@H](NC(=O)c3ccc(N4CC5CN(CC6CCN(c7cc8c(cc7F)C(=O)N(C7CCC(=O)NC7=O)C8=O)CC6)CC5C4)nn3)CC2)cc1Cl` (some centres unmarked) [Compound 259, N-((1r,4r)-4-(3-chloro-4-cyanophenoxy)cyclohexyl)-6-(5-((1-(2-(2,6-dioxopiperidin-3-yl)-6-fluoro-1,3-dioxoisoindolin-5-yl)piperidine-4-yl)methyl)hexahydropyrrolo[3,4-c]pyrrol-2(11H)-yl)pyridazine-3-carboxamide] and `N#Cc1ccc(O[C@H]2CC[C@H](NC(=O)c3ccc(N4CC5CN(CC6CCN(c7ccc8c(c7)C(=O)N(C7CCC(=O)NC7=O)C8=O)CC6)CC5C4)nn3)CC2)cc1Cl` (some centres unmarked) [Compound 260, N-((1r,4r)-4-(3-chloro-4-cyanophenoxy)cyclohexyl)-6-(5-((1-(2-(2,6-dioxopiperidin-3-yl)-1,3-dioxoisoindolin-5-yl)piperidine-4-yl)methyl)hexahydropyrrolo[3,4-c]pyrrol-2(1Ji)-yl)pyridazine-3-carboxamide] cannot be ordered by inhibition at 0.1 µM: > 80% for the first, > 80% for the second.

First: N#Cc1ccc(O[C@H]2CC[C@H](NC(=O)c3cnc(N4CCC5(CC4)CN(C4CCN(c6cc7c(cc6F)C(=O)N(C6CCC(=O)NC6=O)C7=O)CC4)C5)cn3)CC2)cc1Cl (some centres unmarked) [Compound 289]
Second: N#Cc1ccc(O[C@H]2CC[C@H](NC(=O)c3cnc(N4C[C@H]5C[C@@H](N6CCN(c7cc8c(cc7F)C(=O)N(C7CCC(=O)NC7=O)C8=O)CC6)C[C@H]5C4)cn3)CC2)cc1Cl (stereo partly drawn) [Compound 293, N-((1r,4r)-4-(3-chloro-4-cyanophenoxy)cyclohexyl)-5-((3aR,5R,6aS)-5-(4-(2-(2,6-dioxopiperidin-3-yl)-6-fluoro-1,3-dioxoisoindolin-5-yl)piperazin-1-yl)hexahydrocyclopenta[c]pyrrole-2(1H)-yl)pyrazine-2-carboxamide]
The inhibition at 0.1 µM of the first is higher: > 80% for the first, 50 to 79% for the second.

First: N#Cc1ccc(O[C@H]2CC[C@H](NC(=O)c3ccc(N4CCN(C(=O)O[C@H]5C[C@@H]6CN(c7cc8c(cc7F)C(=O)N(C7CCC(=O)NC7=O)C8=O)C[C@@H]6C5)CC4)nn3)CC2)cc1Cl (some centres unmarked) [Compound 290]
Second: N#Cc1ccc(O[C@H]2CC[C@H](NC(=O)c3ccc(N4CCN([C@@H]5C[C@@H]6CN(c7cc8c(cc7F)C(=O)N(C7CCC(=O)NC7=O)C8=O)C[C@@H]6C5)CC4)nn3)CC2)cc1Cl (stereo partly drawn) [Compound 297, N-((1r,4r)-4-(3-chloro-4-cyanophenoxy)cyclohexyl)-6-(4-((3aR,5R,6aS)-2-(2-(2,6-dioxopiperidin-3-yl)-6-fluoro-1,3-dioxoisoindolin-5-yl)octahydrocyclopenta[c]pyrrol-5-yl)piperazin-1-yl)pyridazine-3-formamide]
The inhibition at 0.1 µM of the first is higher: 50 to 79% for the first, 25 to 49% for the second.

Compared with `CC1(C)[C@H](NC(=O)c2ccc(N3CCC(NC4CCN(c5cc6c(cc5F)C(=O)N(C5CCC(=O)NC5=O)C6=O)CC4)CC3)nn2)C(C)(C)[C@H]1Oc1ccc(C#N)c(Cl)c1` (some centres unmarked) [Compound 291, N-((1r,3r)-3-(3-chloro-4-cyanophenoxy)-2,2,4,4-tetramethylcyclobutyl)-6-(4-((1-(2-(2,6-dioxopiperidin-3-yl)-6-fluoro-1,3-dioxoisoindoline)piperidine-4-yl)amino)piperidin-1-yl)pyridazine-3-formamide], `N#Cc1ccc(O[C@H]2CC[C@H](NC(=O)c3ccc(N4CCN([C@@H]5C[C@@H]6CN(c7ccc8c(c7)C(=O)N(C7CCC(=O)NC7=O)C8=O)C[C@@H]6C5)CC4)nn3)CC2)cc1Cl` (stereo partly drawn) [Compound 298, N-((1r,4r)-4-(3-chloro-4-cyanophenoxy)cyclohexyl)-6-(4-((3aR,5R,6aS)-2-(2-(2,6-dioxopiperidin-3-yl)-1,3-dioxoisoindolin-5-yl)octahydrocyclopenta[c]pyrrol-5-yl)piperazin-1-yl)pyridazine-3-formamide] is lower in inhibition at 0.1 µM: 50 to 79% for the first, < 25% for the second.

`N#Cc1ccc(O[C@H]2CC[C@H](NC(=O)c3cnc(N4CCN([C@@H]5C[C@@H]6CN(c7ccc8c(c7)C(=O)N(C7CCC(=O)NC7=O)C8=O)C[C@@H]6C5)CC4)cn3)CC2)cc1Cl` (stereo partly drawn) [Compound 296, N-((1r,4r)-4-(3-chloro-4-cyanophenoxy)cyclohexyl)-5-(4-((3aR,5R,6aS)-2-(2-(2,6-dioxopiperidin-3-yl)-1,3-dioxoisoindol-5-yl)octahydrocyclopenta [c]pyrrol-5-yl)piperazin-1-yl)pyrazine-2-carboxamide] was tested, and the inhibition at 0.1 µM was < 25%.

`N#Cc1ccc(OC2CCC(NC(=O)c3ccc(N4C[C@H]5CC(N6CCN(c7cc8c(cc7F)C(=O)N(C7CCC(=O)NC7=O)C8=O)CC6)C[C@H]5C4)nn3)CC2)cc1Cl` (stereo partly drawn) [Compound 292, N-((1s,4S)-4-(3-chloro-4-cyanophenoxy)cyclohexyl)-6-((3aR,5R,6aS)-5-(4-(2-(2,6-dioxopiperidin-3-yl)-6-fluoro-1,3-dioxoisoindolin-5-yl)piperazin-1-yl)hexahydrocyclopenta[c]pyrrole-2(1H)-yl)pyridazine-3-formamide] was tested, and the “% degradation” value was “D (<25%)”.
For `N#Cc1ccc(OC2CCC(NC(=O)c3ncc(N4C[C@H]5CC(N6CCN(c7cc8c(cc7F)C(=O)N(C7CCC(=O)NC7=O)C8=O)CC6)C[C@H]5C4)cn3)CC2)cc1Cl` (stereo partly drawn) [Compound 294, N-((1r,4r)-4-(3-chloro-4-cyanophenoxy)cyclohexyl)-5-((3aR,5R,6aS)-5-(4-(2-(2,6-dioxopiperidin-3-yl)-6-fluoro-1,3-dioxoisoindolin-5-yl)piperazin-1-yl)hexahydrocyclopenta[c]pyrrole-2(1H)-yl)pyrimidine-2-carboxamide], the “% degradation” value was “C (49%-25%)”.
With `N#Cc1ccc(O[C@H]2CC[C@@H](NC(=O)c3cnc(N4CCN([C@@H]5C[C@@H]6CN(c7cc8c(cc7F)C(=O)N(C7CCC(=O)NC7=O)C8=O)C[C@@H]6C5)CC4)cn3)CC2)cc1Cl` (stereo partly drawn) [Compound 295, N-((1s,4s)-4-(3-chloro-4-cyanophenoxy)cyclohexyl)-5-(4-((3aR,5R,6aS)-2-(2-(2,6-dioxopiperidin-3-yl)-6-fluoro-1,3-dioxoisoindolin-5-yl)octahydrocyclopenta[c]pyrrol-5-yl)piperazin-1-yl)pyrazine-2-carboxamide] the “% degradation” value was “C (49%-25%)”.
